# Measurements as given in patent publication US7413903B2, “Methods of regulating differentiation in stem cells” (ES Cell International PTE Ltd., priority 2002, dated 2008).
# Assays:
# hES cells [1] = assay: GCTM-2 quantification (alkaline phosphatase-coupled secondary antibody, OD 405 nm); format: cell-based, human; settings: for GCTM2 levels, PDGF isoform added with S1P / more GCMT2+ than the control cells: Example 1; for effect of inhibitor on the effect of PDGF and S1P on GCTM2 expression: 7 days, U0126, DMS 3 μM; for more GCMT2+ than the control cells: on MEF, 8 days, S1P 10 μM; for more GCMT2+ than the control cells / more GCMT2+ than the controls: serum-free; for more GCMT2+ than the controls: treated for 2 weeks
# Description: hES-3 cells plated with MEF, were fixed in ethanol and immunostained with GCTM-2 and then with an alkaline phosphatase-coupled secondary antibody (Dako). The activity of alkaline phosphatase was detected by adding a solution of 4-nitrophenyl phosphate (Roche, Mannheim, Germany), followed by reading the optical density (OD) at 405 nm. In order to validate the technique as a relevant indicator of the proportion of GCTM-2 positive cells, standard curves were done with the teratocarcinoma cell line GCT27C4, known to express GCTM-2.
# Cells were fixed in 100% ethanol and immunostained with GCTM-2 followed by alkaline phosphatase-coupled secondary antibodies (Dako). Alkaline phosphatase activity was detected by adding a solution of 4-nitrophenyl phosphate (Roche), and the concentration of the reaction product was determined by reading the optical density (OD) at 405 nm. In order to validate the technique as an accurate indicator of the proportion of GCTM-2 positive cells, standard curves were carried out with the embryonal carcinoma cell line GCT27C4, known to express GCTM-2 ^20.
# ERK1/2 (Erk1 and Erk2) = assay: ERKs phosphorylation in hES cells (Western blot, anti-active MAP kinase); format: cell-based, human; settings: for phosphorylation of ERKs in hES cells: 5 min incubation, LPA, PDGF 20 ng/ml, serum-depleted, without MEF
# Experimental: hES-3 cells plated without MEF for 24 hrs were depleted of serum for a further 18 hrs. Cells pre-treated or not with U0126 (Sigma, 30 μM, 1 hr), were incubated in the presence of the different agents for 5 min and were lysed by removal of the supernatants and addition of a reducing loading buffer containing 1 mM sodium orthovanadate (Sigma). Protein lysates (approx. 80 μg) were separated by SDS-polyacrylamide gel electrophoresis (10% polyacrylamide, w/v), transferred to nitrocellulose (Hybond-nitrocellulose, Amersham) and immunoblotting was carried out using rabbit polyclonal anti-active mitogen-activated protein (MAPK) antibodies raised against a dually phosphorylated MAPK peptide (Promega, Madison, Wis., USA). Peroxidase-coupled secondary antibody (Dako) was detected by exposure of autoradiographic films in the presence of a chemiluminescent detection reagent (ECL, Amersham). Stripping of antibodies was achieved and membranes were then reprobed with rabbit polyclonal anti-ERK1/2 antibodies (Promega), and then with peroxidase-coupled secondary antibodies (Dako). Membranes probed with either rabbit polyclonal anti-active p38 (Promega) or rabbit polyclonal anti-active JNK (Promega) antibodies were also performed, using the same procedure as described
# For immunoblot analysis, cells were transferred into 24 well plates (8 colonies per well) without MEFs, and 24 hr later, were grown in the absence of serum for 18 hrs.
# In some experiments, cells were pre-treated for 1 hr with U0126 (30 μM) or for 18 hrs with PTX (100 μg/ml).
# hES3 cells were lysed following removal of the supernatants by addition of a reducing loading buffer (2% SDS, 62.5 mM Tris pH 6.8, 0.1 M DTT, 0.01% bromophenol blue) containing 1 mM sodium orthovanadate. Samples were boiled for 10 min and centrifuged at 13000 g for 15 min, and protein lysates (approx. 80 μg) were separated by SDS-polyacrylamide gel electrophoresis (10% polyacrylamide, w/v). Proteins were transferred to nitrocellulose (Hybond-ECL, Amersham) and immunoblotting was carried out with rabbit polyclonal anti-active mitogen-activated protein (MAPK) antibodies raised against a dually phosphorylated MAPK peptide (Promega, Madison, Wis., USA). Peroxidase-coupled secondary antibody (Dako) was detected by exposure of autoradiographic films in the presence of a chemiluminescent detection reagent (ECL, Amersham). Stripping of antibodies was achieved by incubating the membrane during 30 min at 50° C. in a buffer containing 100 mM mercaptoethanol, 2% SDS, 62.5 mM Tris-HCl pH 6.7. The membrane was then reprobing with rabbit polyclonal anti-ERK1/2 antibodies (Promega), and then with peroxidase-coupled secondary antibodies (Dako).
# hES cells [2] = assay: Direct observation of hES cell colonies in serum-free medium (spontaneous differentiation); format: cell-based, human; settings: for colony morphology / spontaneous differentiation vs control: Example 1, PDGF 20 ng/ml; for colony morphology / spontaneous differentiation vs control / colony size, morphology / spontaneous differentiation vs controls: on MEF, serum-free; for colony morphology / spontaneous differentiation vs control / colony size, morphology / spontaneous differentiation vs controls / colony growth / differentiation vs control: LPA up to 50 μM; for colony size, morphology / spontaneous differentiation vs controls: Example 2, 2 weeks, PDGF-AB 20 ng/ml; for colony growth / differentiation vs control: 12 days
# Experimental: (§1) hES-3 cells were cultured as previously described^1. The serum-free culture medium consisted of DMEM (without sodium pyruvate, glucose 4500 mg/l, Invitrogen, Mount Waverley, VIC, Australia) supplemented with insulin/transferrin/selenium 1%, β-mercaptoethanol 0.1 mM, NEAA 1%, glutamine 2 mM, Hepes 25 mM, penicillin 50 U/ml and streptomycin […] (all from Invitrogen). Medium was changed every 2 days and cells were passaged every week. S1P and dihydro-S1P were obtained from Biomol (Plymouth Meeting, Pa., USA) and were dissolved in methanol. LPA was obtained from Sigma (Castle Hill, NSW, Australia) and was dissolved in ethanol. Extemporaneous dilutions of all lipids were made in water containing 0.1% fatty acid-free bovine serum albumin (BSA) (Sigma). Human PDGF-AB, PDGF-AA, PDGF-BB were from PreproTech Inc. (Rocky Hill, N.J., USA). RT-PCR Experiments.
# as §1, with “Media” for “Medium”, “USA).” for “USA) and were dissolved in methanol.”, “Australia).” for “Australia) and was dissolved in ethanol.”, “(Sigma). S1P and dihydro-S1P were used at […].” for “(Sigma).”, “USA) and were used at 20 ng/ml.” for “USA). RT-PCR Experiments.”
# For direct observation, hES-3 cells were coated into 12-well plates (3 colonies per well), with or without mouse embryonic feeders (MEFs). The day following the plating, cells were incubated with the different agents in serum free medium containing insulin, transferring and selenium. Media was changed the 2nd day and then every 2 days.
# hES cells [3] = assay: GCTM-2 / PCNA double immunostaining and cell counting of mechanically dissociated hES cells; format: cell-based, human; settings: for percentage of cells GCTM2+: mechanically dissociated, PDGF 10 ng/ml
# Experimental: In some experiments, hES-3 cells plated onto 8-well chamber slides, with or without MEF, were fixed in ethanol or paraformaldehyde (for PDGFR) the day after plating. In others, hES-3 cells were mechanically dissociated, in order to obtain a monolayer culture and then plated onto 8-well chamber slides without MEF and were fixed in ethanol 4 days after the first treatment. Immunostaining was performed using the following antibodies: anti human PDGFR-α or PDGFR-β(R&D Systems Inc.), GCTM-2, and/or PCNA (Chemicon, Boronia, VIC, Australia), TRA-1-60, Oct-4. Nuclei were evidenced by Hoechst-33342. Slides were mounted and observed by fluorescent microscopy with a Leica microscope at X10, X20 and X40. Specificity was verified by the absence of any staining in the negative controls. In some experiments, cells were counted to determine the ratio of cells within the global population.
# For immunostaining, hES-3 cells were coated on chamber slides after mechanical dissociation, in order to obtain a monolayer culture. The day following the plating, cells were incubated with the different agents in a media depleted in serum. Media was changed the 2nd day and the cells were fixed 4 days after the first treatment.
# Cells were washed in PBS, fixed with MeOH, and immunostaining was performed, using the specific stem cell marker antibody GCTM-2, and the specific cell proliferation marker PCNA. Cells were then washed and the nucleuses were stained with Hoechst-33342 (1 μg/ml). Slides were mounted and then observed by fluorescent microscopy. Cells were then counted in order to determine the ratio of proliferating stem cells within the overall population.
# [4] = test system: SPK activity in hES cells; assay: Sphingosine kinase activity in hES cells after incubation with PDGF; format: cell-based, human; settings: PDGF 20 ng/ml
# Experimental: hES-3 cells plated without MEF for 24 hr and depleted of serum for a further 18 hr were incubated in the presence of PDGF (20 ng/ml) for various time periods and were harvested and lysed by sonication (2 W for 30 s at 4° C.) in lysis buffer containing 50 mM Tris/HCl (pH 7.4), 10% glycerol, 0.05% Triton X-100, 150 mM NaCl, 1 mM dithiothreitol, 2 mM Na3VO4, 10 mM NaF, 1 mM EDTA and protease inhibitors (Complete™, Roche, Mannheim, Germany). SPK activity was determined using D-erythro-sphingosine and […] as substrates, as previously described^19. Protein concentrations in cell homogenates were determined with Coomassie Brilliant Blue reagent (Bio-Rad, Regent Park, NSW, Australia) using bovine serum albumin as standard.
# SPK in MEF = assay: Sphingosine kinase activity in MEF after incubation with PDGF; format: cell-based, mouse; settings: PDGF 20 ng/ml
# [5] = Example 4, on MEFs, serum-depleted, S1P 10 μM
# [6] = Example 1, 4 days, no MEF, no serum, S1P 10 μM
# [7] = Example 1, 4 days, no MEF, no serum
molecule,measurement,setting,value
PDGF-AA: Human platelet-derived growth factor isoform AA; only binds to PDGFR-a,"GCTM2 levels, PDGF isoform added with S1P",hES cells [1],120.5±4.5 % of control
same,"GCTM2 expression, PDGF isoform with S1P","hES cells [1]; Example 2, 2 weeks, isoform 20 ng/ml together with S1P",220.3±49.0 % of control
lysophosphatidic acid [LPA],phosphorylation of ERKs in hES cells,ERK1/2 (Erk1 and Erk2); S1P 10 μM,stimulated the phosphorylation of ERKs
same,colony morphology / spontaneous differentiation vs control,"hES cells [2]; 8 days, S1P 10 μM",did not have an obvious effect on growth of the colonies
same,"colony size, morphology / spontaneous differentiation vs controls",hES cells [2]; S1P 10 μM,no obvious effect on size or morphology of hES cell colonies
same,colony growth / differentiation vs control,hES cells [2]; [5],did not seem to affect the growth of the colonies
same,"effect on cell differentiation, hES cells grown without MEFs",hES cells [2]; Example 4,lack of effect
N#CC(=C(/N)Sc1ccccc1N)/C(C#N)=C(\N)Sc1ccccc1N [U0126],effect of inhibitor on the effect of PDGF and S1P on GCTM2 expression,hES cells [1],totally inhibited
same,effect of MEK inhibitor on agonist-stimulated phosphorylation of ERKs,"ERK1/2 (Erk1 and Erk2); U0126 30 μM, 1 hr pre-treatment",totally inhibited
"CCCCCCCCCCCCC/C=C/[C@@H](O)[C@H](CO)N(C)C [DMS, dimethylsphingosine]",effect of inhibitor on the effect of PDGF and S1P on GCTM2 expression,hES cells [1],inhibited the effect of PDGF and S1P
"CCCCCCCCCCCCC/C=C/[C@@H](O)[C@@H](N)COP(=O)(O)O [S1P, sphingosine-1-phosphate]",more GCMT2+ than the control cells,hES cells [1]; PDGF 20 ng/ml,16.6±4.1%
same,more GCMT2+ than the controls,hES cells [1]; Example 2,18.0±17.0%
same,concentration dependence of ERKs stimulation,"ERK1/2 (Erk1 and Erk2); 5 min, various concentrations of S1P",in a concentration dependant manner
same,phosphorylation of ERKs in hES cells,ERK1/2 (Erk1 and Erk2); S1P 10 μM,stimulated the phosphorylation of ERKs
same,duration of ERKs stimulation,ERK1/2 (Erk1 and Erk2); S1P 10 μM,at least 60 min
same,percentage of cells GCTM2+,hES cells [3]; [6],47.9±3.8%
same,proliferating rate of hES cells (PCNA) vs control,hES cells [3]; [7],no statistically significant difference
same,proliferating rate of hES cells (PCNA) vs control,"hES cells [3]; Example 4, 4 days without serum, S1P 10 μM",no marked difference
same,cells GCTM-2 positive,"hES cells [3]; Example 4, 4 days without serum, S1P 10 μM (control 16%)",68%
same,colony morphology / spontaneous differentiation vs control,"hES cells [2]; 8 days, S1P 10 μM",the colonies appeared flatter and less differentiated
same,"colony size, morphology / spontaneous differentiation vs controls",hES cells [2]; S1P 10 μM,the colonies appeared flatter and less differentiated
same,colony morphology / differentiation vs control condition,"hES cells [2]; Example 4, on MEFs, serum-depleted, 8 days, S1P 10 μM",the colonies were more compact and less differentiated
same,colony growth / differentiation vs control,hES cells [2]; [5],more obvious after 12 days of treatment
same,"effect on cell differentiation, hES cells grown without MEFs",hES cells [2]; Example 4,inhibitory effect
"CCCCCCCCCCCCCCC[C@@H](O)[C@@H](N)COP(=O)(O)O [dihydro-S1P, dihydrosphingosine-1-phosphate]",GCTM2 expression,"hES cells [1]; Example 2, 2 weeks, dihydro-S1P, PDGF 20 ng/ml",223.0±27.0 % of control
"PDGF: Human platelet-derived growth factor, isoform AB, from PreproTech; ligand of class III tyrosine kinase receptor","GCTM2 levels, PDGF isoform added with S1P",hES cells [1],125.7±9.7 % of control
same,more GCMT2+ than the control cells,hES cells [1]; PDGF 20 ng/ml,16.6±7.0%
same,more GCMT2+ than the controls,hES cells [1]; Example 2,50.3±18.4%
same,phosphorylation of ERKs in hES cells,ERK1/2 (Erk1 and Erk2); S1P 10 μM,stimulated the phosphorylation of ERKs
same,percentage of cells GCTM2+,hES cells [3]; [6],53.7±13.2%
same,proliferating rate of hES cells (PCNA) vs control,hES cells [3]; [7],no statistically significant difference
same,duration of enhanced SPK activity,[4],at least 60 min
same,SPK activity relative to basal values,[4]; after 30 min of incubation,1.6 fold
same,colony morphology / spontaneous differentiation vs control,"hES cells [2]; 8 days, S1P 10 μM",the colonies appeared flatter and less differentiated
same,"colony size, morphology / spontaneous differentiation vs controls",hES cells [2]; S1P 10 μM,the colonies appeared flatter and less differentiated
same,activation of SPK in MEF,SPK in MEF,did not induce a significant statistical activation of SPK
